# From US9359308B2, “Pyrazine kinase inhibitors” (Portola Pharmaceuticals, Inc., priority 2011, dated 2016)
# Biological target: T1, full length active recombinant SYK enzyme (Homo sapiens, UniProt P43405)
# T1 construct: full length active recombinant SYK enzyme (Millipore, Calif.); purchased Millipore
# Test: Inhibition of Syk tyrosine phosphorylation activity (LANCE TR-FRET kinase assay)
# Assay type: biochemical
# Conditions: activity in the Syk assays, class symbols
# Summary of the method: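 1 nM full-length active recombinant SYK phosphorylated 550 nM biotin-DEEDYESP-OH with 100 μM ATP in 50 mM Tris pH 7.5, 5 mM MgCl2, 1 mM DTT and 3% DMSO for 1 h at room temperature. After EDTA quench, Eu-anti-phosphotyrosine/SA-APC TR-FRET was read after 1 h. IC50s came from non-linear regression.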
row,Compound,IC50 [nM]
1,"CC(C)[C@@H](Nc1cnc(C(N)=O)c(Nc2cc(F)c3ncccc3c2)n1)C(N)=O [Example 206, (R)-5-(1-amino-3-methyl-1-oxobutan-2-ylamino)-3-(8-fluoroquinolin-6-ylamino)pyrazine-2-carboxamide]",1 to 10
2,"CN1C(=O)COc2ccc(Nc3nc(N[C@@H]4CCCC[C@@H]4N)cnc3C(N)=O)cc21 [Example 207, 5-((1R,2S)-2-aminocyclohexylamino)-3-(4-methyl-3-oxo-3,4-dihydro-2H-benzo[b][1,4]oxazin-6-ylamino)pyrazine-2-carboxamide]",1 to 10
3,"CC[C@@H](Nc1cnc(C(N)=O)c(Nc2cc(F)c3ncccc3c2)n1)C(N)=O [Example 208, (R)-5-(1-amino-1-oxobutan-2-ylamino)-3-(8-fluoroquinolin-6-ylamino)pyrazine-2-carboxamide]",1 to 10
4,"CC(C)[C@@H](Nc1cnc(C(N)=O)c(Nc2ccc(-c3ccccn3)cc2)n1)C(N)=O [Example 209, (R)-5-(1-amino-3-methyl-1-oxobutan-2-ylamino)-3-(4-(pyridin-2-yl)phenylamino)pyrazine-2-carboxamide]",10 to 100
5,"NC(=O)c1ncc(N[C@@H]2CCCC(F)(F)[C@@H]2N)nc1Nc1cc(F)c2ncccc2c1 [Example 210, 5-((1R,2R)-2-amino-3,3-difluorocyclohexylamino)-3-(8-fluoroquinolin-6-ylamino)pyrazine-2-carboxamide]",1 to 10
6,"CC[C@@H](Nc1cnc(C(N)=O)c(Nc2cnn(C)c2)n1)C(N)=O [Example 211, (R)-5-(1-amino-1-oxobutan-2-ylamino)-3-(1-methyl-1H-pyrazol-4-ylamino)pyrazine-2-carboxamide]",100 to 1000
7,"Cc1cc(Nc2nc(N[C@@H](C(N)=O)C(C)C)cnc2C(N)=O)sn1 [Example 212, (R)-5-(1-amino-3-methyl-1-oxobutan-2-ylamino)-3-(3-methylisothiazol-5-ylamino)pyrazine-2-carboxamide]",1 to 10
8,"NC(=O)c1ncc(N[C@@H]2CCCC[C@@H]2N)nc1Nc1ccnnc1 [Example 213, 5-((1R,2S)-2-aminocyclohexylamino)-3-(pyridazin-4-ylamino)pyrazine-2-carboxamide]",10 to 100
9,"Cc1cc(Nc2nc(N[C@@H](C(N)=O)C(C)(C)C)cnc2C(N)=O)sn1 [Example 214, (R)-5-(1-amino-3,3-dimethyl-1-oxobutan-2-ylamino)-3-(3-methylisothiazol-5-ylamino)pyrazine-2-carboxamide]",10 to 100
10,"Cc1cc(Nc2nc(N[C@H](C)C(N)=O)cnc2C(N)=O)sn1 [Example 215, (R)-5-(1-amino-1-oxopropan-2-ylamino)-3-(3-methylisothiazol-5-ylamino)pyrazine-2-carboxamide]",10 to 100
11,"CC(C)C[C@@H](Nc1cnc(C(N)=O)c(Nc2cncc(Cl)c2)n1)C(N)=O [Example 216, (R)-5-(1-amino-4-methyl-1-oxopentan-2-ylamino)-3-(5-chloropyridin-3-ylamino)pyrazine-2-carboxamide]",1 to 10
12,"NC(=O)c1ncc(N[C@@H]2CCCC[C@@H]2N)nc1Nc1cncc(Cl)c1 [Example 217, 5-((1R,2S)-2-aminocyclohexylamino)-3-(5-chloropyridin-3-ylamino)pyrazine-2-carboxamide]",1 to 10
13,"CC[C@@H](Nc1cnc(C(N)=O)c(Nc2cnn(CC3CC3)c2)n1)C(N)=O [Example 218, (R)-5-(1-amino-1-oxobutan-2-ylamino)-3-(1-(cyclopropylmethyl)-1H-pyrazol-4-ylamino)pyrazine-2-carboxamide]",100 to 1000
14,"NC(=O)c1ncc(N[C@@H]2CCCC[C@@H]2N)nc1Nc1cnn(CC2CC2)c1 [Example 219, 5-((1R,2S)-2-aminocyclohexylamino)-3-(1-(cyclopropylmethyl)-1H-pyrazol-4-ylamino)pyrazine-2-carboxamide]",10 to 100
15,"Cc1cc(Nc2nc(NC3(C(N)=O)CC3)cnc2C(N)=O)sn1 [Example 220, 5-(1-carbamoylcyclopropylamino)-3-(3-methylisothiazol-5-ylamino)pyrazine-2-carboxamide]",1 to 10
16,"CCc1cc(Nc2nc(N[C@H](CC)C(N)=O)cnc2C(N)=O)sn1 [Example 221, (R)-5-(1-amino-1-oxobutan-2-ylamino)-3-(3-ethylisothiazol-5-ylamino)pyrazine-2-carboxamide]",1 to 10
17,"CC(C)[C@@H](Nc1cnc(C(N)=O)c(Nc2cncc(Cl)c2)n1)C(N)=O [Example 222, (R)-5-(1-amino-3-methyl-1-oxobutan-2-ylamino)-3-(5-chloropyridin-3-ylamino)pyrazine-2-carboxamide]",10 to 100
18,"CC[C@@H](Nc1cnc(C(N)=O)c(Nc2cncc(Cl)c2)n1)C(N)=O [Example 223, (R)-5-(1-amino-1-oxobutan-2-ylamino)-3-(5-chloropyridin-3-ylamino)pyrazine-2-carboxamide]",10 to 100

row,Compound,IC50 [nM]
1,"CCc1cc(Nc2nc(N[C@@H](C(N)=O)C(C)C)cnc2C(N)=O)sn1 [Example 224, (R)-5-(1-amino-3-methyl-1-oxobutan-2-ylamino)-3-(3-ethylisothiazol-5-ylamino)pyrazine-2-carboxamide]",1 to 10
2,"CCc1cc(Nc2nc(N[C@H](CC3CC3)C(N)=O)cnc2C(N)=O)sn1 [Example 225, (R)-5-(1-amino-3-cyclopropyl-1-oxopropan-2-ylamino)-3-(3-ethylisothiazol-5-ylamino)pyrazine-2-carboxamide]",1 to 10
3,"CCc1cc(Nc2nc(N[C@@H]3CCCC(F)(F)[C@@H]3N)cnc2C(N)=O)sn1 [Example 226, 5-((1R,2R)-2-amino-3,3-difluorocyclohexylamino)-3-(3-ethylisothiazol-5-ylamino)pyrazine-2-carboxamide]",10 to 100
4,"NC(=O)c1ncc(N[C@@H]2CCCC(F)(F)[C@@H]2N)nc1Nc1cnc2cc(F)ccc2c1 [Example 227, 5-((1R,2R)-2-amino-3,3-difluorocyclohexylamino)-3-(7-fluoroquinolin-3-ylamino)pyrazine-2-carboxamide]",10 to 100
5,"CC[C@@H](Nc1cnc(C(N)=O)c(Nc2cc(C(C)(C)C)ns2)n1)C(N)=O [Example 228, (R)-5-(1-amino-1-oxobutan-2-ylamino)-3-(3-tert-butylisothiazol-5-ylamino)pyrazine-2-carboxamide]",10 to 100
6,"CC(C)(C)c1cc(Nc2nc(N[C@H](CC3CC3)C(N)=O)cnc2C(N)=O)sn1 [Example 229, (R)-5-(1-amino-3-cyclopropyl-1-oxopropan-2-ylamino)-3-(3-tert-butylisothiazol-5-ylamino)pyrazine-2-carboxamide]",10 to 100
7,"CN1C(=O)COc2ccc(Nc3nc(N[C@@H]4CCCC(F)(F)[C@@H]4N)cnc3C(N)=O)cc21 [Example 230, 5-((1R,2R)-2-amino-3,3-difluorocyclohexylamino)-3-(4-methyl-3-oxo-3,4-dihydro-2H-benzo[b][1,4]oxazin-6-ylamino)pyrazine-2-carboxamide]",10 to 100
8,"NC(=O)c1ncc(N[C@@H]2CCCC[C@@H]2N)nc1Nc1cc(C2CC2)no1 [Example 231, 5-((1R,2S)-2-aminocyclohexylamino)-3-(3-cyclopropylisoxazol-5-ylamino)pyrazine-2-carboxamide]",10 to 100
9,"CC[C@@H](Nc1cnc(C(N)=O)c(Nc2cnc3ccc(F)cc3c2)n1)C(N)=O [Example 232, (R)-5-(1-amino-1-oxobutan-2-ylamino)-3-(6-fluoroquinolin-3-ylamino)pyrazine-2-carboxamide]",1 to 10
10,"CC[C@@H](Nc1cnc(C(N)=O)c(Nc2cnc3cc(F)ccc3c2)n1)C(N)=O [Example 233, (R)-5-(1-amino-1-oxobutan-2-ylamino)-3-(7-fluoroquinolin-3-ylamino)pyrazine-2-carboxamide]",1 to 10
11,"CC(C)(C)[C@@H](Nc1cnc(C(N)=O)c(Nc2cnc3ccc(F)cc3c2)n1)C(N)=O [Example 234, (R)-5-(1-amino-3,3-dimethyl-1-oxobutan-2-ylamino)-3-(6-fluoroquinolin-3-ylamino)pyrazine-2-carboxamide]",1 to 10
12,"CC(C)(C)[C@@H](Nc1cnc(C(N)=O)c(Nc2ccc3cccnc3c2)n1)C(N)=O [Example 235, (R)-5-(1-amino-3,3-dimethyl-1-oxobutan-2-ylamino)-3-(quinolin-7-ylamino)pyrazine-2-carboxamide]",10 to 100
13,"CCc1cc(Nc2nc(N[C@@H](C(N)=O)C(C)(C)C)cnc2C(N)=O)sn1 [Example 236, (R)-5-(1-amino-3,3-dimethyl-1-oxobutan-2-ylamino)-3-(3-ethylisothiazol-5-ylamino)pyrazine-2-carboxamide]",10 to 100
14,"CC(C)(C)[C@@H](Nc1cnc(C(N)=O)c(Nc2cnc3cccnc3c2)n1)C(N)=O [Example 237, (R)-3-(1,5-naphthyridin-3-ylamino)-5-(1-amino-3,3-dimethyl-1-oxobutan-2-ylamino)pyrazine-2-carboxamide]",10 to 100
15,"CC[C@@H](Nc1cnc(C(N)=O)c(Nc2cc(C3CC3)ns2)n1)C(N)=O [Example 238, (R)-5-(1-amino-1-oxobutan-2-ylamino)-3-(3-cyclopropylisothiazol-5-ylamino)pyrazine-2-carboxamide]",1 to 10
16,"C[C@@H](Nc1cnc(C(N)=O)c(Nc2cc(C3CC3)ns2)n1)C(N)=O [Example 239, (R)-5-(1-amino-1-oxopropan-2-ylamino)-3-(3-cyclopropylisothiazol-5-ylamino)pyrazine-2-carboxamide]",1 to 10
17,"CC[C@@H](Nc1cnc(C(N)=O)c(Nc2cc(C(C)C)ns2)n1)C(N)=O [Example 240, (R)-5-(1-amino-1-oxobutan-2-ylamino)-3-(3-isopropylisothiazol-5-ylamino)pyrazine-2-carboxamide]",10 to 100
18,"CC(C)c1cc(Nc2nc(N[C@H](C)C(N)=O)cnc2C(N)=O)sn1 [Example 241, (R)-5-(1-amino-1-oxopropan-2-ylamino)-3-(3-isopropylisothiazol-5-ylamino)pyrazine-2-carboxamide]",1 to 10
